What was measured:
[1] = Cmax in human at 30 mg administered as formulated fasted capsules; format: ADME; set-up: dose 30 mg; details: in vivo, po
[2] = AUC (0 to t) in human at 30 mg administered as formulated fasted capsules; format: ADME; set-up: dose 30 mg; details: in vivo, po
[3] = AUC (0 to infinity) in human at 30 mg administered as formulated fed (high-fat meal) capsules; format: ADME; set-up: dose 30 mg; details: in vivo, po
[4] = Inhibition of rat brain cortical membrane GABA alpha receptor by TBPS binding assay; format: cell membranes, Cortex
[5] = Cmax in human at 30 mg administered as formulated fed (high-fat meal) capsules; format: ADME; set-up: dose 30 mg; details: in vivo, po
[6] = AUC (0 to t) in human at 30 mg administered as formulated fed (high-fat meal) capsules; format: ADME; set-up: dose 30 mg; details: in vivo, po
[7] = AUC (0 to infinity) in human at 30 mg administered as formulated fasted capsules; format: ADME; set-up: dose 30 mg; details: in vivo, po

Row | Compound | IC50 [4] [nM] | also measured
1 | C[C@@]1(O)CC[C@H]2[C@H](CC[C@@H]3[C@@H]2CC[C@]2(C)[C@@H](C(=O)CO)CC[C@@H]32)C1 | 86 | Cmax [1]: 21.8 ng/mL; AUC(0-t) [2]: 530 ng·h/mL; AUC(0-inf) [3]: 1010 ng·h/mL; Cmax [5]: 63.1 ng/mL; AUC(0-t) [6]: 838 ng·h/mL; AUC(0-inf) [7]: 640 ng·h/mL
2 | CC(=O)[C@H]1CC[C@H]2[C@@H]3CC[C@@H]4C[C@@](O)(C(F)F)CC[C@@H]4[C@H]3CC[C@]12C | 33 | 
3 | COC[C@@]1(O)CC[C@H]2[C@@H](CC[C@@H]3[C@@H]2CC[C@]2(C)[C@@H](C(=O)CO)CC[C@@H]32)C1 | 94 | 
4 | CC(=O)[C@H]1CC[C@H]2[C@@H]3CC[C@H]4C[C@](C)(O)CC[C@@H]4[C@H]3CC[C@]12C | 93 | 
5 | COC[C@@]1(O)CC[C@H]2[C@H](CC[C@@H]3[C@@H]2CC[C@]2(C)[C@@H](C(=O)CO)CC[C@@H]32)C1 | 170 | 
6 | COC[C@@]1(O)CC[C@H]2[C@H](CC[C@@H]3[C@@H]2CC[C@]2(C)[C@@H](C(C)=O)CC[C@@H]32)C1 | 41 | 
